This note sets out measurements from ChEMBL document CHEMBL1201862, “PubChem BioAssay data set” (2004).

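Five compound concentrations were applied to cells in 96-well plates for 48 hours; endpoints were derived by simple linear interpolation of the resulting dose-response curve. Here, GI50 denotes the concentration required for 50% inhibition of growth.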 Calls of active or inactive are those of the source. Cut-off read from the data, not from the text of the source: active = GI50 up to about 1.1 µM and inactive = higher.

Some test systems named below: SF-268; OVCAR-4; TK-10; HCT-116; EKVX; BT-549; SW-620; OVCAR-3; ACHN; HL-60; RXF 393; U-251; A498; SNB-75; MDA-N; HOP-92; SR; IGROV-1; OVCAR-8; NCI-H226.
Holding throughout (experiment): growth of human tumour cells (NCI), 48 h

In the case of `C[n+]1c(-c2ccc(NC(=O)c3ccc(C(=O)Nc4ccc(-c5cn6ccccc6[n+]5C)cc4)cc3)cc2)cn2ccccc21`, the GI50 in the test with SF-268, in the test with OVCAR-4, with TK-10, in the test on HCT-116, with EKVX and in the test on BT-549 was > 100 µM (inactive) throughout. In addition, the GI50 is > 100 µM (inactive) with SW-620; > 100 µM (inactive) in the test on OVCAR-3; > 100 µM (inactive) in the test on ACHN; 23.4 µM (inactive) in the test with HL-60; 39.6 µM (inactive) in the test with RXF 393; > 73.3 µM (inactive) with U-251. Also, the GI50 was 39.1 µM (inactive) with A498; 60.8 µM (inactive) with SNB-75; > 69.8 µM (inactive) in the test on MDA-N; > 100 µM (inactive) in the test with HOP-92; 18.5 µM (inactive) with SR; > 66.5 µM (inactive) in the test with IGROV-1. Moreover, the GI50 in the test with OVCAR-8 and in the test with NCI-H226 was > 100 µM (inactive) throughout.

For `COc1ccc(-c2cc(=O)c3c(OC)c(OC)c(OC)cc3o2)cc1`, the GI50 is 31.1 µM (inactive) in the test with SF-268; 24.2 µM (inactive) with OVCAR-4; 36 µM (inactive) in the test with TK-10; 32.6 µM (inactive) in the test with HCT-116; 37.4 µM (inactive) in the test on EKVX; 31.7 µM (inactive) in the test on BT-549. Besides, the GI50 is 36.8 µM (inactive) in the test on SW-620; 26.8 µM (inactive) in the test on OVCAR-3; 24.4 µM (inactive) with ACHN; 11.7 µM (inactive) with HL-60; 30.1 µM (inactive) in the test on RXF 393; 26.3 µM (inactive) with U-251. For the same compound, the GI50 in the test with A498 is 19.8 µM (inactive); with SNB-75, 26.9 µM (inactive); in the test on MDA-N, 40.6 µM (inactive); with HOP-92 it was 20.6 µM (inactive); with SR, 11.3 µM (inactive); in the test with IGROV-1, 37.9 µM (inactive). In addition, the figures for the GI50 in the test on OVCAR-8 and with NCI-H226 were 35.2 µM (inactive) and 27 µM (inactive), respectively.

Regarding `C=C(C(=O)OC)c1cc2ccccc2n1S(=O)(=O)c1ccccc1`, the GI50 in the test with SF-268 is 1.84 µM (inactive); in the test with OVCAR-4, 4.82 µM (inactive); in the test on TK-10, 1.57 µM (inactive); in the test on HCT-116 it was 6.55 µM (inactive); in the test with EKVX, 12.1 µM (inactive); with BT-549, 1.73 µM (inactive). Moreover, the GI50 with SW-620 is 2.09 µM (inactive); in the test on OVCAR-3, 3.4 µM (inactive); in the test with ACHN it was 1.8 µM (inactive); with HL-60, 1.87 µM (inactive); in the test with RXF 393, 0.792 µM (active); with U-251, 1.92 µM (inactive). The GI50 in the test with A498 was 2.15 µM (inactive); in the test on SNB-75, 3.3 µM (inactive); with MDA-N it was 2.7 µM (inactive); in the test with HOP-92, 0.927 µM (active); in the test on SR, 0.815 µM (active); in the test on IGROV-1, 1.55 µM (inactive). Further, the figures for the GI50 in the test on OVCAR-8 and in the test on NCI-H226 were 2.44 µM (inactive) and 2.36 µM (inactive), respectively.

For the compound `CN(N=O)C(=O)NNC(=O)N(C)N=O`, the GI50 was 38.9 µM (inactive) with SF-268; > 100 µM (inactive) in the test with OVCAR-4; > 100 µM (inactive) in the test on TK-10; 74 µM (inactive) in the test on HCT-116; 29.2 µM (inactive) with EKVX; 91.8 µM (inactive) with BT-549. In addition, the GI50 with SW-620 was 36.2 µM (inactive); in the test with OVCAR-3 it was > 100 µM (inactive); with ACHN, > 100 µM (inactive); in the test with HL-60 it was 31.6 µM (inactive); in the test on RXF 393, 26.8 µM (inactive); with U-251, 52.5 µM (inactive). In addition, the GI50 with A498 is > 100 µM (inactive); in the test on SNB-75, > 100 µM (inactive); in the test on MDA-N, > 100 µM (inactive); in the test on HOP-92 it was 47.1 µM (inactive); in the test on SR, 8.81 µM (inactive); in the test on IGROV-1, 65.8 µM (inactive). For the same compound, the GI50 in the test on OVCAR-8 was 55.3 µM (inactive); in the test on NCI-H226, > 100 µM (inactive).

For `COc1ccc2c(=O)c3ccoc3n(CC=C(C)C)c2c1` [ACROPHYLLINE], the GI50 in the test on SF-268 is 78.2 µM (inactive); in the test with OVCAR-4, 44.7 µM (inactive); with TK-10, > 100 µM (inactive); in the test on HCT-116, 52.7 µM (inactive); with EKVX, 43.9 µM (inactive); with BT-549 it was 35.4 µM (inactive). For the same compound, the GI50 in the test on SW-620 was 97.3 µM (inactive); in the test with OVCAR-3 it was 85.7 µM (inactive); in the test with ACHN it was 8.49 µM (inactive); in the test with HL-60, 23.6 µM (inactive); with RXF 393, 28.5 µM (inactive); with U-251 it was > 100 µM (inactive). Also, the GI50 was > 63.2 µM (inactive) with A498; 26.4 µM (inactive) with SNB-75; 73.8 µM (inactive) with MDA-N; > 26.2 µM (inactive) with HOP-92; 31 µM (inactive) in the test with SR; 74.5 µM (inactive) with IGROV-1. For the same compound, the GI50 is 39.5 µM (inactive) with OVCAR-8 and > 87.9 µM (inactive) with NCI-H226.

Turning to `COC(=O)c1ccccc1/C=C1\Cc2cc(C)c(C)cc2C1=O`, the GI50 was 40.3 µM (inactive) with SF-268; > 100 µM (inactive) with OVCAR-4; 36.9 µM (inactive) with TK-10; > 100 µM (inactive) in the test on HCT-116; > 100 µM (inactive) in the test with EKVX; 34.5 µM (inactive) in the test with BT-549. Besides, the GI50 in the test with SW-620 was > 100 µM (inactive); in the test with OVCAR-3, > 100 µM (inactive); with ACHN it was > 100 µM (inactive); in the test on HL-60, > 100 µM (inactive); in the test with RXF 393, 89.1 µM (inactive); with U-251, 27.1 µM (inactive). The GI50 with A498 was 73.3 µM (inactive); in the test on SNB-75 it was 26.5 µM (inactive); in the test with MDA-N, > 100 µM (inactive); with HOP-92, 21.2 µM (inactive); in the test with SR, > 100 µM (inactive); with IGROV-1, > 100 µM (inactive). Besides, the GI50 in the test on OVCAR-8 is 55.7 µM (inactive); in the test on NCI-H226, 49 µM (inactive).

In the case of `O=C1CSC(c2ccccc2O)N1c1nc2cc3sc(N4C(=O)CSC4c4ccccc4O)nc3cc2s1` (stereo not given), the GI50 in the test with SF-268 is > 86.9 µM (inactive); in the test on OVCAR-4, 44.1 µM (inactive); in the test with TK-10, > 100 µM (inactive); in the test with HCT-116, 20.7 µM (inactive); in the test on EKVX, 61.9 µM (inactive); with BT-549, 11.9 µM (inactive). For the same compound, the GI50 in the test with SW-620 was 22.4 µM (inactive); in the test with OVCAR-3, > 100 µM (inactive); in the test with ACHN it was > 44.6 µM (inactive); in the test with HL-60, 31.6 µM (inactive); in the test with RXF 393, > 100 µM (inactive); in the test with U-251 it was 36.3 µM (inactive). Also, the GI50 in the test with A498 was > 42.9 µM (inactive); in the test on SNB-75, 99.8 µM (inactive); in the test on MDA-N it was 34.8 µM (inactive); in the test with HOP-92, > 42.5 µM (inactive); in the test with SR, 7.71 µM (inactive); with IGROV-1, 18.9 µM (inactive). For the same compound, the results for the GI50 in the test with OVCAR-8 and in the test on NCI-H226 were 37.2 µM (inactive) and 21 µM (inactive), respectively.

`CC(CCCCNC(=O)OC(C)(C)C)NC(=O)NC(C)CCCCNC(=O)OC(C)(C)C` (stereo not given): the GI50 with SF-268 is > 100 µM (inactive); with OVCAR-4, 81.5 µM (inactive); in the test on TK-10, 31.3 µM (inactive); in the test on HCT-116, 50.7 µM (inactive); in the test on EKVX it was > 100 µM (inactive); with BT-549, > 100 µM (inactive). Also, the GI50 in the test with SW-620 is > 100 µM (inactive); in the test with OVCAR-3, 57 µM (inactive); in the test with ACHN it was > 100 µM (inactive); in the test with HL-60, 39 µM (inactive); in the test with RXF 393, > 100 µM (inactive); in the test on U-251, > 100 µM (inactive). Moreover, the GI50 is > 100 µM (inactive) in the test on A498; > 100 µM (inactive) with SNB-75; 72.6 µM (inactive) in the test with MDA-N; > 100 µM (inactive) with HOP-92; 99.8 µM (inactive) with SR; > 100 µM (inactive) with IGROV-1. In addition, the GI50 in the test with OVCAR-8 was > 100 µM (inactive); in the test with NCI-H226, 54 µM (inactive).
